Source: PubChem BioAssay (NCI)
Where “and” joins values, the source holds several entries; their conditions need not be identical. Equal entries are not always repeated.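 1) Cells in 96-well plates. 2) Compound, 48 h, 5 concentrations. 3) Linear interpolation between surrounding doses. 4) Unreached endpoint = highest concentration. Here, GI50 denotes the concentration required for 50% inhibition of growth. TGI is the concentration that stops growth completely.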

What was measured:
Assay in all cases: NCI-60 cell line screen, 48 h
[1] = tested on: SW-620 colon
[2] = tested on: ACHN renal
[3] = tested on: RXF 393 renal
[4] = tested on: EKVX NSCLC
[5] = tested on: IGROV1 ovarian
[6] = tested on: OVCAR-8 ovarian
[7] = tested on: NCI-H226 lung
[8] = tested on: HOP-92 NSCLC
[9] = tested on: NCI-H522 lung
[10] = tested on: MDA-N
[11] = tested on: MOLT-4 leukemia
[12] = tested on: UACC-62 melanoma
[13] = tested on: BT-549 breast
[14] = tested on: A498 renal
[15] = tested on: SNB-75 CNS
[16] = tested on: HCT-15 colon
[17] = tested on: KM12 colon
[18] = tested on: A549 NSCLC
[19] = tested on: SK-OV-3 ovarian
[20] = tested on: SNB-19 CNS
[21] = tested on: SF-295 CNS
[22] = tested on: T-47D breast
[23] = tested on: PC-3 prostate
[24] = tested on: OVCAR-4 ovarian
[25] = tested on: CAKI-1 renal
[26] = tested on: OVCAR-5 ovarian
[27] = tested on: U251 CNS
[28] = tested on: SK-MEL-2 melanoma
[29] = tested on: NCI-H23 lung
[30] = tested on: COLO 205 colon
[31] = tested on: OVCAR-3 ovarian
[32] = tested on: MCF7 breast
[33] = tested on: SF-268 CNS
[34] = tested on: RPMI-8226 leukemia
[35] = tested on: MDA-MB-231 breast
[36] = tested on: HOP-62 NSCLC
[37] = tested on: HT29 colon
[38] = tested on: LOX IMVI melanoma
[39] = tested on: HCT-116 colon
[40] = tested on: M14 melanoma
[41] = tested on: SK-MEL-5 melanoma
[42] = tested on: NCI/ADR-RES ovarian
[43] = tested on: UO-31 renal
[44] = tested on: NCI-H460 lung
[45] = tested on: SF-539 CNS
[46] = tested on: UACC-257 melanoma
[47] = tested on: DU-145 prostate
[48] = tested on: K-562 leukemia
[49] = tested on: SN12C renal
[50] = tested on: HL-60(TB) leukemia
[51] = tested on: TK-10 renal
[52] = tested on: SK-MEL-28 melanoma
[53] = tested on: 786-0 renal
[54] = tested on: CCRF-CEM leukemia
[55] = tested on: HCC-2998 colon
[56] = tested on: MALME-3M melanoma
[57] = tested on: MDA-MB-435

For NN/C(=N\S(=O)(=O)c1ccc(-c2ccccn2)s1)Nc1ccc(Cl)cc1, the TGI [1] was greater than 100 µM, the TGI [2] was greater than 100 µM and the TGI [3] was 94 µM. It also gave a TGI [4] greater than 100 µM, a TGI [5] greater than 100 µM and a TGI [6] greater than 100 µM. For the same molecule, the TGI [7] was greater than 100 µM, the TGI [8] was greater than 100 µM and the TGI [9] was 57.1 µM. It also gave a TGI [10] greater than 100 µM, a TGI [11] greater than 100 µM and a TGI [12] greater than 100 µM. For the same molecule, the TGI [13] was greater than 100 µM, the TGI [14] was greater than 100 µM and the TGI [15] was 69.2 µM. It also gave a TGI [16] greater than 100 µM, a TGI [17] greater than 100 µM and a TGI [18] greater than 100 µM. The TGI [19] was greater than 100 µM, the TGI [20] was greater than 100 µM and the TGI [21] was greater than 100 µM. The TGI [22] was greater than 100 µM, the TGI [23] was greater than 100 µM and the TGI [24] was greater than 100 µM. For the same molecule, the TGI [25] was greater than 100 µM, the TGI [26] was greater than 100 µM and the TGI [27] was greater than 100 µM. It also gave a TGI [28] greater than 100 µM, a TGI [29] greater than 100 µM and a TGI [30] greater than 100 µM. It also gave a TGI [31] greater than 100 µM, a TGI [32] greater than 100 µM and a TGI [33] of 84.2 µM. It also gave a TGI [34] greater than 100 µM, a TGI [35] greater than 100 µM and a TGI [36] greater than 100 µM. It also gave a TGI [37] greater than 100 µM, a TGI [38] greater than 100 µM and a TGI [39] greater than 100 µM. It also gave a TGI [40] greater than 100 µM, a TGI [41] greater than 100 µM and a TGI [42] greater than 100 µM. The TGI [43] was greater than 100 µM, the TGI [44] was greater than 100 µM and the TGI [45] was greater than 100 µM. It also gave a TGI [46] greater than 100 µM, a TGI [47] greater than 100 µM and a TGI [48] greater than 100 µM. The TGI [49] was greater than 100 µM, the TGI [50] was greater than 100 µM and the TGI [51] was greater than 100 µM. It also gave a TGI [52] greater than 100 µM and a TGI [53] greater than 100 µM.
In the case of CCCCCCCCCCCC[C@H](O)[C@H]1CC[C@H]([C@H](O)CCCC[C@H](O)CCCCC[C@@H](O)CC2=C[C@H](C)OC2=O)O1, the GI50 [1] is reported as 21.6 µM, the TGI [1] is reported as 64 µM and the GI50 [2] is reported as 11.2 µM. For the same molecule, the TGI [2] was 5.5 µM and 23.8 µM, the TGI [3] was 33.2 µM and the GI50 [4] was 2.5 µM. The TGI [4] was 10.9 µM, the GI50 [7] was 17.4 µM and the TGI [7] was 43.3 µM. It also gave a GI50 [8] of 23.7 µM, a TGI [8] of 52.9 µM and a TGI [9] of 19.7 µM. For the same molecule, the GI50 [10] was 14.3 µM, the TGI [10] was 30.5 µM and the GI50 [11] was 3.67 µM. The TGI [11] was 24.9 µM, the TGI [12] was 7.17 µM and the GI50 [13] was 12.7 µM. It also gave a GI50 [15] of 16.3 µM, a TGI [15] of 31.7 µM and a GI50 [16] of 18.7 µM. For the same molecule, the TGI [16] was 57.8 µM, the GI50 [17] was 16.9 µM and the TGI [17] was 35.9 µM. For the same molecule, the GI50 [54] was 5.62 µM, the TGI [54] was 27.3 µM and the GI50 [18] was 12.4 µM. For the same molecule, the TGI [18] was 28.5 µM, the GI50 [20] was 13.3 µM and the TGI [20] was 27.7 µM. The GI50 [21] was 3 µM, the TGI [21] was 20.1 µM and the GI50 [22] was 2.82 µM. The TGI [22] was 21.6 µM, the GI50 [23] was 16.2 µM and the TGI [23] was 29.8 µM. It also gave a TGI [24] of 36.1 µM, a GI50 [25] of 17.5 µM and a TGI [25] of 36.4 µM. For the same molecule, the TGI [26] was 31.7 µM, the TGI [27] was greater than 100 µM and the GI50 [28] was 19.9 µM. It also gave a TGI [28] of 36.2 µM, a GI50 [29] of 0.46 µM and a TGI [29] of 22.2 µM. It also gave a GI50 [30] of 16.4 µM, a TGI [30] of 32.7 µM and a TGI [55] of 33.9 µM. For the same molecule, the GI50 [31] was 17.2 µM, the TGI [31] was 9.34 µM and 32.4 µM and the GI50 [32] was 10.9 µM. The TGI [32] was 25.4 µM, the GI50 [33] was 17 µM and the TGI [33] was 40.3 µM. For the same molecule, the GI50 [35] was 16.2 µM, the TGI [35] was 40.9 µM and the GI50 [36] was 17.5 µM. The TGI [36] was 31.8 µM, the GI50 [38] was 2.19 µM and the TGI [38] was 3.72 µM and 22.9 µM. It also gave a GI50 [39] of 0.636 µM, a TGI [39] of 22.7 µM and a GI50 [40] of 14.2 µM. It also gave a TGI [40] of 27.4 µM, a GI50 [41] of 0.0602 µM and a TGI [41] of 15.6 µM. For the same molecule, the TGI [56] was 32.2 µM, the GI50 [42] was 14.5 µM and the TGI [42] was 34.4 µM. For the same molecule, the GI50 [43] was 14.6 µM, the TGI [43] was 7.44 µM and 28.8 µM and the GI50 [44] was 0.986 µM. The TGI [44] was 22.9 µM, the TGI [45] was 29.5 µM and the GI50 [46] was 1.69 µM. The TGI [46] was 5.81 µM and 19 µM, the GI50 [48] was 0.0621 µM and the TGI [48] was 26.9 µM. The GI50 [57] was 15.6 µM, the TGI [57] was 8.48 µM and 38.8 µM and the GI50 [49] was 17.8 µM. The TGI [49] was 38.8 µM, the TGI [50] was 8.05 µM and the GI50 [51] was 13.1 µM. The TGI [51] was 26.8 µM, the GI50 [52] was 20 µM and the TGI [52] was 41.2 µM. It also gave a GI50 [53] of 18.5 µM and a TGI [53] of 34.5 µM.
